In patent US11203757B2, “Use of Rad18 inhibitors in the treatment of tumors” (Centre National De La Recherche Scientifique, priority 2014, dated 2021):

Key:
Type in all cases: cell-based
[1] = tested on: U87 glioblastoma cell line; test: Cell viability of U87 cells transfected with Rad18 siRNA and challenged with cisplatin; settings: U87 cells co-transfected with siRNA and empty vector, increasing cisplatin, CellTiter-Glo; rescued by re-expression of Rad18
Excerpt: (E) Survival curves of U87 glioblastoma cells co-transfected with empty vector and non-specific siRNA (siLuc+EV), or Rad18-specific siRNA and empty vector (siRad18+EV) and rescued by co-transfection with Rad18 (siRad18+Rad18), challenged with the indicated doses of cisplatin (CisPt) normalized to non-treated cells (mock). Means and standard deviations are shown (n=3).
U87 cells were co-transfected either with siRNA Rad18 (GAG GAU UCU UCU AGC UGU A; SEQ ID NO:3) or siRNA Luciferase (Luc) as a control and an empty vector (pcDNA3) or Rad18 expressing vector using JETPrime reagent (Polyplus). Twenty-four hours after transfection, cells were trypsinized and seeded in 12 wells plates at a density of 10 000 cells/well. Twenty-four hours later cells were treated with increasing concentration of cisplatin (Sigma).
Cells were plated at 1×10^4 per well in twelve-well plates and UV-irradiated or exposed to the indicated amount of cisplatin (CisPt, Sigma). 48 hours after irradiation, cell viability was determined using the CellTiter-Glo® Luminescent Cell Viability assay (Promega).

[2] = tested on: Gb4 glioblastoma cancer stem cells; test: Proliferation of gliospheres after Rad18 siRNA treatment; settings: 72 hours post-treatment, absence of external damage, versus control siRNA (siLuc)
Protocol: FIG. 6. Rad18 downregulation affects the proliferation of glioblastoma cancer stem cells in the absence of external damage. (A) Western blot of Gb4 glioblastoma cancer stem cells extracts treated with control siRNA (siLuc, lane 1), or a Rad18-specific siRNA (siRad18, lane 2) analysed 72 hours post-treatment. Extracts were probed with anti-Rad18 or anti-PCNA antibodies. (B) Phase contrast microscopy images of gliospheres treated with control siRNA or Rad18-specific siRNA 72 hours post-treatment. (C) Quantification of gliospheres proliferation upon downregulation of Rad18 expression expressed as number of cells. Glioblastoma cancer stem cells extracts were treated as described in panel A and cells were counted before (0 h) or 72 hours post-treatment (72 h).
Glioblastoma cancer stem cells (Gliospheres, Gb4 and Gb7 cell lines) were isolated from patients as described in Clarion et al, 2014.
Cells were maintained in DMEM-F12 (Lonza, Levallois-Perret, France) supplemented with B27 and N2 (Invitrogen, LifeTechnologies, Saint Aubin, France), 25 ng/ml of FGF-2 and EGF (Peprotech, Neuilly sur Seine, France) at 37° C. in 5% CO2 humidified incubators.
Gb4 glioblastoma cancer stem cells extracts, treated with control siRNA or a Rad18-specific siRNA (SEQ ID NO:3) were analysed 72 hours post-treatment. […]

[3] = tested on: U87-MG glioblastoma cells; test: CellTiter-Glo cell viability of U87-MG cells treated with P2207; settings: indicated doses of P2207, 48 h post-treatment, FIG. 7
Protocol: FIG. 7. […] Survival curves of U87-MG glioblastoma cells treated with the indicated doses of the USP7 inhibitor P2207 (Sigma-Aldrich), or DMSO as a control. Means and standard deviations are shown (n=3). Cell viability is expressed as percent (%) of viability compared to the control (DMSO).
Cells were plated at 1.0×10^4 cells/well in 12-well plates and exposed to the indicated amount of P2207 inhibitor (Sigma) or DMSO as control. 48 h post-treatment, cell viability was determined using the CellTiter-Glo luminescent cell viability assay (Promega).

| Molecule | sensitivity to cisplatin (cell viability) [1] | proliferation of gliospheres (number of cells) [2] | sensitization of glioblastoma to cisplatin treatment (cell viability, % of DMSO control) [3] |
| --- | --- | --- | --- |
| GAG GAU UCU UCU AGC UGU A (GAGGAUUCUUCUAGCUGUA; listed as RNA, chemistry not given here) [Rad18-specific siRNA] | strong sensitivity to cisplatin | affect the proliferation of gliospheres | – |
| CC(=O)c1cc([N+](=O)[O-])c(Sc2ccc(F)cc2F)s1 [P2207] | – | – | sensitizes glioblastoma to cisplatin treatment |
